According to patent publication US7173014B2, “HIV-specific synthetic oligonucleotides and methods of their use” (priority 1997, dated 2007):

Tested on: low passage, clinical strains of HIV-1
Test: Anti-HIV activity in fresh human peripheral blood mononuclear cells
Assay type: cell-based
Conditions: fresh human PBMC; varies from strain to strain
Experimental: In another experiment, the anti-HIV activity of Oligos 12, 32, and 41 was evaluated against a variety of low passage, clinical strains of HIV-1 in fresh human peripheral blood mononuclear cells. These strains include viruses obtained from pediatric patients attending the Children's Hospital University of Alabama at Birmingham as well as viruses representative of the various HIV-1 clades found throughout the world, shown below in TABLE 4.
Fresh human peripheral blood lymphocytes (PBL) were isolated from voluntary Red Cross donors, seronegative for HIV and HBV. Leukophoresed blood was diluted 1:1 with Dulbecco's phosphate buffered saline (PBS), layered over 14 ml of Ficoll-Hypaque density gradient in a 50 ml centrifuge tube. Tubes were then centrifuged for 30 minutes at 600×g. Banded PBLs were gently aspirated from the resulting interface and subsequently washed 2× with PBS by low speed centrifugation. After final wash, cells were enumerated by trypan blue exclusion and re-suspended at 1×10^7/ml in RPMI 1640 with 15% Fetal Bovine Serum (FBS), 2 mM L-glutamine, […] PHA-P and allowed to incubate for 48–72 hours at 37° C. After incubation, PBLs were centrifuged and reset in RPMI 1640 with 15% FBS, 2 mM L-glutamine, 100 U/ml penicillin, 100 μg/ml streptomycin, 10 μg/ml gentamycin, and 20 U/ml recombinant human IL-2. PBLs were maintained in this medium at a concentration of 1–2×10^6/ml with bi-weekly medium changes, until use in assay protocol. […]
In the standard PBL assay (MOI: 0.2), the assay was ended on day 7 following collection of cell free supernatant samples for reverse transcriptase activity assay. In the low MOI PBL assay (MOI: 0.02), supernatant samples were collected on day 6, day 11, and day 14 post-infection and analyzed for RT activity. […] Opti-Fluor O was added to each sample and incorporated radioactivity was quantified utilizing a liquid scintillation counter, (Wallac 1450 Microbetaplus, Gaithersburg, Md.).

Oligo 41: oligonucleotide having SEQ ID NO:6; sequence not printed, not listed in TABLE 2 (UCGCACCCATCTCTCTCCUUC; chemistry not given here)
activity against low passage clinical T-tropic strains of HIV-1: active
